The format of data set [1] is physicochemical.
For data set [2], the system named is Human glioma cell line SF-767. The format is cell-based. As to conditions: cells pretreated with chloroquine 30 minutes at 37° C., nanoemulsion/p-PLL/DNA complex, two quantities.
Data set [3] is classed as physicochemical. Conditions: after 38 days at 4° C., HPLC.
In data set [4] the test system is rat 9L glioma cells. In kind it is cell-based.
The test system of data set [5] is human glioma cells 767 SF. In kind it is cell-based. Conditions: for Concentration of B in the cells after 18 hrs incubation: initial B in the media 38 μg.

Where two headings read alike, the source gives them in different places.

For the compound `C[C@@H]1[C@H](O)[C@@H](C)/C=C/C=C/C=C/C=C/C=C/C=C/C=C/[C@H](O[C@@H]2O[C@H](C)[C@@H](O)[C@H](N)[C@@H]2O)C[C@@H]2O[C@](O)(C[C@@H](O)C[C@@H](O)[C@H](O)CC[C@@H](O)C[C@@H](O)CC(=O)O[C@H]1C)C[C@H](O)[C@H]2C(=O)O` [AmpB, Amphotericin B], in data set [1] (10 mg AmpB added to 100 mg lipids), the “AmpB incorporated in the submicron emulsion system” value is given as 2.33 mg. In data set [1] (first fraction, particle size 177 nm), the “incorporated AmpB recovered with the first fraction” value is reported as 72%.
Consider `CCN(CC)CCCC(C)Nc1ccnc2cc(Cl)ccc12` (stereo not drawn) [chloroquine], for which, in data set [2], the “effect on transfection efficiency (β-galactosidase activity)” value is on record as “greatly increased the transfection efficiency”.
In the case of “cholesteryl 1,12-dicarba-closo-dodecaborane 1-carboxylate [BCH]”, the “initial BCH recovered from the formulation” value in data set [3] is recorded as “about 85%”. For the same compound, the “Concentration of B in the cells after 18 hrs incubation” value in data set [4] (High concentration: initial B in the media 16.5 μg/ml) is given as 61 ± 13 μg/g cells; in data set [4] (Low concentration: initial B in the media 8.25 μg/ml), 50 ± 10 μg/g cells; in data set [5] (FBS media), 57.6 ± 15.5 μg/g cells; in data set [5] (LPDS media), 14.7 ± 3.5 μg/g cells. In addition, the “uptake in FBS relative to LPDS” value in data set [5] (FBS (lipoproteins present) vs LPDS (no lipoproteins)) is “more than triple”.

Source of the values: US20040234588A1 (priority 2000, published 2004).
